Where two headings read alike, the source gives them in different places.

One experiment addresses T1, NLRP3 inflammasome (Homo sapiens, UniProt Q96P20).
T1 construct: freshly isolated from human peripheral blood from healthy donors; StemCells Technologies; host or cells: primary human PBMCs
The experiment is described as follows: NLRP3 inflammasome activation assay in LPS-primed, nigericin-stimulated PBMCs, IL-1β release. The class given is cell-based. As to conditions: PBMC, LPS priming, 10 μM nigericin. In outline:
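Fresh or cryopreserved human PBMCs primed with 100 ng/mL LPS for 3 h, pre-incubated 30 min with compound (0.00017-10 uM, or 2-fold 20-point series from 40 μM), then stimulated with 10 μM nigericin for 1.5 h at 37 °C. Supernatant IL-1β measured by ELISA or by HTRF (665/620 ratio).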

The next experiment relates to THP-1 ASC-GFP cells. The experiment can be described thus: THP-1 ASC-GFP speck assay (NLRP3 inflammasome activation, nigericin). The class given is cell-based. As to conditions: THP1-ASC-GFP; PMA-differentiated, LPS primed, 10 μM nigericin. As for the experimental part: THP-1 ASC-GFP cell line was purchased from Invivogen, San Diego, for infammasome activation assay. THP-1 ASC-GFP cells stably express a 37.6 kDa ASC::GFP fusion protein that enables monitoring of spec formation by microscopy after activation of NLRP3 dependent inflammasome pathway. Cells were maintained at a density of 600,000 cells/mL in growth media consisting of RPMI 1640, 2 mM L-glutamine, 25 mM HEPES and 10% heat inactivated fetal bovine serum at 37° C. and 5% CO2. Cells were passaged every 3-4 days and used for assays for up to 20 passages.
THP-1 ASC-GFP cells were collected by centrifuging cells at 800 RPM for 5 minutes. Cell culture supernatant was removed and cells were re-suspended in fresh media at density of 1×10^6 cells/mL in assay media consisting of RPMI 1640, 2 mM L-glutamine, 25 mM HEPES and 10% heat inactivated fetal bovine serum. Phorbol 12-myristate 13-acetate (PMA) (Invivogen,tlrl-pma) was added to the cell suspension at a final concentration of 500 ng/ml and mixed thoroughly. 40,000 cells were added per well of a 384 well plate and differentiated into macrophages overnight at 37° C. and 5% CO2. Cells were primed with 1 μg/mL of lipopolysaccharide (Invivogen Ultrapure lipopolysaccharide from E. coli, tlrl-3pelps) in assay media for 3 hours at 37° C. and 5% CO2. After priming, media was removed and THP-1 ASC-GFP cells were preincubated with serially diluted test compounds with starting concentration of 40 μM followed by 2-fold dilution for a 20-point curve or vehicle (DMSO) for 30 min in assay media at 37° C. and 5% CO2. Cells were then stimulated with 10 μM nigericin (Invivogen, tlrl-nig-5) for 90 min at 37° C. and 5% CO2 to activate NLRP3 dependent inflammasome pathway and spec formation. After stimulation, cells were fixed with 4.8% paraformaldehyde (Electron Microscopy Sciences #15710-S) and incubated at room temperature for 15 min. Cells were then washed 3-times with 100 μL of phosphate buffered saline and permeabilized in the presence of premeablization/block buffer for 20 min at room temperature. Cells were then washed 3-times with 100 μL phosphate buffered saline and incubated for 1 hr at room temperature in the presence of hoechst. After staining with Hoechst, cells were washed 3-times with 100 μL phosphate buffered saline and imaged for ASC spec formation.
THP-1 ASC-GFP cells were imaged in 488 and Hoechst channels. Hoechst channel was used for cell count and 488 channel was used to identify number of GFP ASC specks in imaged fields. Percentage of cells with a spec was calculated by dividing the number of GFP positive spots by total number of cells.

T1 sequence (Q96P20 whole entry): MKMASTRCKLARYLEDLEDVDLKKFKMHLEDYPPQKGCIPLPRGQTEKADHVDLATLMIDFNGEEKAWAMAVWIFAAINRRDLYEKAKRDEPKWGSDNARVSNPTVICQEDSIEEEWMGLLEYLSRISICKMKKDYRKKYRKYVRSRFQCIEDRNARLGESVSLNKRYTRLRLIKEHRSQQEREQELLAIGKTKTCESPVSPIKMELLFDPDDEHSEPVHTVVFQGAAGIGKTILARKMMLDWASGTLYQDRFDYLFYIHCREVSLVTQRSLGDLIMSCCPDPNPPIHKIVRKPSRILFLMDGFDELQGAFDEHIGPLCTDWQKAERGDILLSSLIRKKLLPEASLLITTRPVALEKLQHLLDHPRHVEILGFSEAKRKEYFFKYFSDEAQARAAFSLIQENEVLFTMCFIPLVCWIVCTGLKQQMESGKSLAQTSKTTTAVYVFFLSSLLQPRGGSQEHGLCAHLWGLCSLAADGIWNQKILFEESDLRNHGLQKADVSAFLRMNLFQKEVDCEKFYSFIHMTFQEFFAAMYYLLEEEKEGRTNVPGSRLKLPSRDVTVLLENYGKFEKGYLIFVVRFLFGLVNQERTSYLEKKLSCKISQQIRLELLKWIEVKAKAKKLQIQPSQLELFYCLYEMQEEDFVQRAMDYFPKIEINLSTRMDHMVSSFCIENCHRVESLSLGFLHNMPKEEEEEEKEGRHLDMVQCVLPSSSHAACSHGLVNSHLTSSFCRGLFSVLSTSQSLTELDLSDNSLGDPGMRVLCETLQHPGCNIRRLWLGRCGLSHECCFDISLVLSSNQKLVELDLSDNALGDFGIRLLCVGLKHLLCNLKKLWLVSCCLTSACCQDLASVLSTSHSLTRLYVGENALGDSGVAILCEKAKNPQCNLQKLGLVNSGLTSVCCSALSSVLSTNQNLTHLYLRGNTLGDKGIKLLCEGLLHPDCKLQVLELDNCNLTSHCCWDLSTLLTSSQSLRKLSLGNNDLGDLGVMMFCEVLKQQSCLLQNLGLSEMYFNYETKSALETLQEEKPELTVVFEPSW

Take `CC(C)(C)c1cc(C(C)(C)C)nc(NC(=O)NS(=O)(=O)c2cnn3c2OCCC3)n1` [Example 22, N-((4,6-di-tert-butylpyrimidin-2-yl)carbamoyl)-6,7-dihydro-5H-pyrazolo[5,1-b][1,3]oxazine-3-sulfonamide]: the IC50 was greater than 10 µM at NLRP3 inflammasome (read-out: PMBC IL-1β IC50) and greater than 20000 nM in the experiment with THP-1 ASC-GFP cells.

As for `O=C(Nc1nc(-c2ccccc2)cc(C(F)(F)F)n1)NS(=O)(=O)c1cnn2c1OCCC2` [Example 17, N-((4-phenyl-6-(trifluoromethyl)pyrimidin-2-yl)carbamoyl)-6,7-dihydro-5H-pyrazolo[5,1-b][1,3]oxazine-3-sulfonamide], the concentration for half-maximal inhibition (IC50) on NLRP3 inflammasome (read-out: PMBC IL-1β IC50) was greater than 10 µM; with THP-1 ASC-GFP cells, greater than 9800 nM.

Turning to `COc1cc(OC)nc(NC(=O)NS(=O)(=O)c2cnn3c2OCCC3)n1` [Example 18, N-((4,6-dimethoxypyrimidin-2-yl)carbamoyl)-6,7-dihydro-5H-pyrazolo[5,1-b][1,3]oxazine-3-sulfonamide], the half-maximal inhibitory concentration (IC50) was greater than 10 µM at NLRP3 inflammasome (PMBC IL-1β IC50 (μM)) and greater than 20000 nM in the experiment with THP-1 ASC-GFP cells.

As to `O=C(Nc1nc(Cl)cc(Cl)n1)NS(=O)(=O)c1cnn2c1OCCC2` [Example 4, N-((4,6-dichloropyrimidin-2-yl)carbamoyl)-6,7-dihydro-5H-pyrazolo[5,1-b][1,3]oxazine-3-sulfonamide], the IC50 was greater than 10 µM on NLRP3 inflammasome (read-out: PMBC IL-1β IC50) and greater than 20000 nM with THP-1 ASC-GFP cells.

Consider `O=C(Nc1nc(-c2ccccc2)cc2c1CCC2)NS(=O)(=O)c1cnn2c1OCCC2` [Example 23, N-((3-phenyl-6,7-dihydro-5H-cyclopenta[c]pyridin-1-yl)carbamoyl)-6,7-dihydro-5H-pyrazolo[5,1-b][1,3]oxazine-3-sulfonamide], for which the IC50 on NLRP3 inflammasome (read-out: PMBC IL-1β IC50) is greater than 10 µM; with THP-1 ASC-GFP cells it was greater than 20000 nM.

As to `Cc1cc(C)nc(NC(=O)NS(=O)(=O)c2cnn3c2OCCC3)n1` [Example 25, N-((4,6-dimethylpyrimidin-2-yl)carbamoyl)-6,7-dihydro-5H-pyrazolo[5,1-b][1,3]oxazine-3-sulfonamide], the IC50 was greater than 10 µM at NLRP3 inflammasome (read-out: PMBC IL-1β IC50) and greater than 20000 nM with THP-1 ASC-GFP cells.

`CCn1nc(C(C)C)c(NC(=O)NS(=O)(=O)c2cnn3c2OCC(C)(C)C3)c1C(C)C` [Example 65, N-((1-ethyl-3,5-diisopropyl-1H-pyrazol-4-yl)carbamoyl)-6,6-dimethyl-6,7-dihydro-5H-pyrazolo[5,1-b][1,3]oxazine-3-sulfonamide, ammonia] gave a half-inhibitory concentration (IC50) with THP-1 ASC-GFP cells of 1400 nM.

With `CO[C@@H]1COc2c(S(=O)(=O)NC(=O)Nc3c4c(nn3C(C)C)CCC4)cnn2C1` [Example 60a, Sodium (S)—N-((2-isopropyl-2,4,5,6-tetrahydrocyclopenta[c]pyrazol-3-yl)carbamoyl)-6-methoxy-6,7-dihydro-5H-pyrazolo[5,1-b][1,3]oxazine-3-sulfonamide], the midpoint of inhibition in the experiment on THP-1 ASC-GFP cells, the IC50, lay at 570 nM.

Compound `CN[C@@H]1COc2c(S(=O)(=O)NC(=O)Nc3c(C(C)C)nn(CC(F)(F)F)c3C(C)C)cnn2C1` [Example 72a, (S)—N-((3,5-diisopropyl-1-(2,2,2-trifluoroethyl)-1H-pyrazol-4-yl)carbamoyl)-6-(methylamino)-6,7-dihydro-5H-pyrazolo[5,1-b][1,3]oxazine-3-sulfonamide, ammonia] gave a half-inhibitory concentration (IC50) in the experiment with THP-1 ASC-GFP cells of 2500 nM.

Turning to `COc1cc(-c2cc(C(F)(F)F)nc(C(C)C)c2NC(=O)NS(=O)(=O)c2cnn3c2OCCC3)ccn1` [Example 69, Sodium N-((2-isopropyl-2′-methoxy-6-(trifluoromethyl)-[4,4′-bipyridin]-3-yl)carbamoyl)-6,7-dihydro-5H-pyrazolo[5,1-b][1,3]oxazine-3-sulfonamide], the half-inhibitory concentration (IC50) in the experiment on THP-1 ASC-GFP cells amounted to 520 nM.

For `CC(C)c1cc(C(F)(F)F)nc(C(C)C)c1NC(=O)NS(=O)(=O)c1cnn2c1OC[C@@H](N(C)C)C2` [Example 76a, (S)—N-((2,4-diisopropyl-6-(trifluoromethyl)pyridin-3-yl)carbamoyl)-6-(dimethylamino)-6,7-dihydro-5H-pyrazolo[5,1-b][1,3]oxazine-3-sulfonamide], the 50% inhibitory concentration (IC50) in the experiment with THP-1 ASC-GFP cells worked out at 560 nM.

For `CC(C)c1nn(C(F)(F)F)c(C(C)C)c1NC(=O)NS(=O)(=O)c1cnn2c1OCCC2` [Example 67, N-((3,5-diisopropyl-1-(trifluoromethyl)-1H-pyrazol-4-yl)carbamoyl)-6,7-dihydro-5H-pyrazolo[5,1-b][1,3]oxazine-3-sulfonamide, ammonia], 170 nM corresponded to half-maximal inhibition in the experiment on THP-1 ASC-GFP cells (IC50).

For the compound `CC(C)c1nn(C)c(C(C)C)c1NC(=O)NS(=O)(=O)c1cnn2c1OCC(C)(C)C2` [Example 68, N-((3,5-diisopropyl-1-methyl-1H-pyrazol-4-yl)carbamoyl)-6,6-dimethyl-6,7-dihydro-5H-pyrazolo[5,1-b][1,3]oxazine-3-sulfonamide, ammonia], the half-inhibitory concentration (IC50) with THP-1 ASC-GFP cells was 1500 nM.

In turn, `CC(C)c1cc(OC2CC2)nc(C(C)C)c1NC(=O)NS(=O)(=O)c1cnn2c1OCCC2` [Example 81, Sodium N-((6-cyclopropoxy-2,4-diisopropylpyridin-3-yl)carbamoyl)-6,7-dihydro-5H-pyrazolo[5,1-b][1,3]oxazine-3-sulfonamide] registered an IC50 in the experiment on THP-1 ASC-GFP cells of 8200 nM.

In the experiment with THP-1 ASC-GFP cells, `CC(C)c1cc(OC(F)(F)F)nc(C(C)C)c1NC(=O)NS(=O)(=O)c1cnn2c1OCCC2` [Example 71, Sodium N-((2,4-diisopropyl-6-(trifluoromethoxy)pyridin-3-yl)carbamoyl)-6,7-dihydro-5H-pyrazolo[5,1-b][1,3]oxazine-3-sulfonamide] displayed an IC50 of 1900 nM.

Regarding `CO[C@@H]1COc2c(S(=O)(=O)NC(=O)Nc3c(C(C)C)nn(CC(F)F)c3C(C)C)cnn2C1` [Example 62a, (S)—N-((1-(2,2-difluoroethyl)-3,5-diisopropyl-1H-pyrazol-4-yl)carbamoyl)-6-methoxy-6,7-dihydro-5H-pyrazolo[5,1-b][1,3]oxazine-3-sulfonamide, ammonia], in the experiment with THP-1 ASC-GFP cells, the IC50 stood at 640 nM.

Compound `COc1cc(-c2nc(C(F)(F)F)cc(C(C)C)c2NC(=O)NS(=O)(=O)c2cnn3c2OCCC3)ccn1` [Example 74, Sodium N-((4-isopropyl-2′-methoxy-6-(trifluoromethyl)-[2,4′-bipyridin]-3-yl)carbamoyl)-6,7-dihydro-5H-pyrazolo[5,1-b][1,3]oxazine-3-sulfonamide] yielded an IC50 with THP-1 ASC-GFP cells of 340 nM.

In the experiment on THP-1 ASC-GFP cells, `CO[C@@H]1COc2c(S(=O)(=O)NC(=O)Nc3c(C(C)C)nn(CC(F)(F)F)c3C(C)C)cnn2C1` [Example 59a, (S)—N-((3,5-diisopropyl-1-(2,2,2-trifluoroethyl)-1H-pyrazol-4-yl)carbamoyl)-6-methoxy-6,7-dihydro-5H-pyrazolo[5,1-b][1,3]oxazine-3-sulfonamide, ammonia] displayed an IC50 of 170 nM.

In turn, `CO[C@@H]1COc2c(S(=O)(=O)NC(=O)Nc3c(C(C)C)nn(C(F)(F)F)c3C(C)C)cnn2C1` [Example 78a, (S)—N-((3,5-diisopropyl-1-(trifluoromethyl)-1H-pyrazol-4-yl)carbamoyl)-6-methoxy-6,7-dihydro-5H-pyrazolo[5,1-b][1,3]oxazine-3-sulfonamide] returned an IC50 in the experiment with THP-1 ASC-GFP cells of 71 nM.

Compound `CC(C)c1nn(C(F)(F)F)c(C(C)C)c1NC(=O)NS(=O)(=O)c1cnn2c1OCC(C)(C)C2` [Example 79, N-((3,5-diisopropyl-1-(trifluoromethyl)-1H-pyrazol-4-yl)carbamoyl)-6,6-dimethyl-6,7-dihydro-5H-pyrazolo[5,1-b][1,3]oxazine-3-sulfonamide] showed an IC50 with THP-1 ASC-GFP cells of 740 nM.

`CCn1nc(C(C)C)c(NC(=O)NS(=O)(=O)c2cnn3c2OC[C@@H](NC)C3)c1C(C)C` [Example 66a, (S)—N-((1-ethyl-3,5-diisopropyl-1H-pyrazol-4-yl)carbamoyl)-6-(methylamino)-6,7-dihydro-5H-pyrazolo[5,1-b][1,3]oxazine-3-sulfonamide, ammonia]: the IC50 in the experiment with THP-1 ASC-GFP cells was found to be 3600 nM.

As to `CC(C)n1nc2c(c1NC(=O)NS(=O)(=O)c1cnn3c1OC[C@@H](N(C)C)C3)CCC2` [Example 77a, (S)-6-(dimethylamino)-N-((2-isopropyl-2,4,5,6-tetrahydrocyclopenta[c]pyrazol-3-yl)carbamoyl)-6,7-dihydro-5H-pyrazolo[5,1-b][1,3]oxazine-3-sulfonamide], the IC50 in the experiment with THP-1 ASC-GFP cells was 1900 nM.

The term IC50 denotes the point on the concentration scale where inhibition reaches its midpoint.

The record behind these values is patent US11560391B2, “Sulfonylurea compounds as inhibitors of interleukin-1 activity” (Genentech, Inc., priority 2018, dated 2023).
